Results reported in US10221171B2, “Oxathiazole thiazolium Hsp 70 inhibitors” (THE REGENTS OF THE UNIVERSITY OF CALIFORNIA, priority 2015, dated 2019).
Like-named read-outs stand apart in the source and are kept apart here.

Legend:
Format in all cases: cell-based
MEF (C57BL/6) = test: MTT cell viability assay, MEF (C57BL/6); conditions: Mus musculus
Description: (§1) Cells were then treated with compound at various concentrations in 0.2 mL media. After the 72-hour incubation period, cells were washed in PBS (3×100 μL), and 10 μL MTT reagent was added with 100 μL fresh media. Cells were then incubated for 4 hr in a humidified chamber at 37° C. with 5% CO2. Insoluble formazan crystals were solubilized by addition of 0.1 mL detergent solution (4 hr at room temp., dark). Resulting colored solutions were then quantified at an absorbance of 570 nm.

MCF-7 = test: MTT cell viability assay, MCF-7; conditions: Homo sapiens, read-out: IC50/μM MCF-7
Description: as §1

MDA-MB-231 = test: MTT cell viability assay, MDA-MB-231; conditions: Homo sapiens
Description: as §1

[1] = 72 h, read-out: IC50/μM MEF (C57BL/6), MTT, 72-hour incubation
[2] = MCF7, 72 h, MTT, 72-hour incubation
[3] = MDA-MB-231, 72 h, 72-hour incubation
[4] = MTT, 72-hour incubation, read-out: IC50/μM MEF (C57BL/6)

SMILES | IC50 (MCF-7; MCF7, MTT, 72-hour incubation) [µM] | IC50 (MDA-MB-231; MDA-MB-231, 72-hour incubation) [µM] | IC50 (MEF (C57BL/6); [1]) [µM] | IC50 (MCF-7; [2]) [µM] | IC50 (MDA-MB-231; [3]) [µM] | IC50 (MEF (C57BL/6); [4]) [µM] | IC50 (MCF-7; MCF7, 72 h) [µM]
CCn1c(=O)/c(=C2\Sc3cc(OC)ccc3N2C)s/c1=C\c1scc[n+]1Cc1ccccc1Cl [JG-301] |  |  | 0.66 ± 0.01 | 0.048 ± 0.003 | 0.033 ± 0.005 |  | 
CCn1c(=O)/c(=C2\Sc3cc(OC)ccc3N2C)s/c1=C\c1scc[n+]1Cc1ccccc1OC(F)(F)F [JG-303] |  |  |  |  | 0.053 ± 0.005 | 0.7 ± 0.01 | 0.07 ± 0.003
CCn1c(=O)/c(=C2\Sc3cc(OC)ccc3N2C)s/c1=C\c1scc[n+]1Cc1ccccc1C(F)(F)F [JG-304] | 0.12 ± 0.01 | 0.1 ± 0.02 |  |  |  | 1.4 ± 0.06 | 
CCn1c(=O)/c(=C2\Sc3cc(OC)ccc3N2C)s/c1=C\c1scc[n+]1Cc1ccsc1C(=O)OC [JG-305] | 0.12 ± 0.01 | 0.16 ± 0.01 |  |  |  | 1 ± 0.1 | 
CCn1c(=O)/c(=C2\Sc3cc(OC)ccc3N2C)s/c1=C\c1scc[n+]1Cc1ccc(C(F)(F)F)o1 [JG-306] | 0.16 ± 0.02 | 0.1 ± 0.01 |  |  |  | > 10 | 
CCn1c(=O)/c(=C2\Sc3cc(SC)ccc3N2C)s/c1=C\c1scc[n+]1Cc1ccccc1Cl [JG-309] |  |  | 0.75 ± 0.05 | 0.15 ± 0.01 | 0.13 ± 0.01 |  | 
CCn1c(=O)/c(=C2\Sc3cc(SC)ccc3N2C)s/c1=C\c1scc[n+]1Cc1ccsc1C(=O)OC [JG-313] | 0.2 ± 0.01 | 0.16 ± 0.02 |  |  |  | 1.4 ± 0.1 | 
CCn1c(=O)/c(=C2\Sc3cc(SC)ccc3N2C)s/c1=C\c1scc[n+]1Cc1ccc(C(F)(F)F)o1 [JG-314] | 0.57 ± 0.08 | 0.25 ± 0.04 |  |  |  | 4.8 ± 0.9 | 
CCn1c(=O)/c(=C2\Sc3cc(Br)ccc3N2C)s/c1=C\c1scc[n+]1C(C)c1ccccc1 (stereo not drawn) [JG-317] | 0.35 ± 0.08 | 0.14 ± 0.02 |  |  |  | 2.7 ± 0.1 | 
CCn1c(=O)/c(=C2\Sc3cc(C)ccc3N2C)s/c1=C\c1scc[n+]1C(C)c1ccccc1 (stereo not drawn) [JG-318] | 0.16 ± 0.03 | 0.11 ± 0.01 |  |  |  | 1.1 ± 0.1 | 
CCn1c(=O)/c(=C2\Sc3cc(C(C)C)ccc3N2C)s/c1=C\c1scc[n+]1C(C)c1ccccc1 (stereo not drawn) [JG-319] | 0.13 ± 0.01 | 0.26 ± 0.03 |  |  |  | 1.7 ± 0.04 | 
CCc1ccc2c(c1)S/C(=c1/s/c(=C\c3scc[n+]3C(C)c3ccccc3)n(CC)c1=O)N2C (stereo not drawn) [JG-320] | 0.1 ± 0.01 | 0.3 ± 0.05 |  |  |  | 1.3 ± 0.04 | 
CCn1c(=O)/c(=C2\Sc3cc(SC)ccc3N2C)s/c1=C\c1scc[n+]1C(C)c1ccccc1 (stereo not drawn) [JG-321] | 0.23 ± 0.03 | 0.14 ± 0.01 |  |  |  | 1.8 ± 0.1 | 
CCn1c(=O)/c(=C2\Sc3cc(OC)ccc3N2C)s/c1=C\c1scc[n+]1C(C)c1ccccc1 (stereo not drawn) [JG-322] | 0.14 ± 0.01 | 0.15 ± 0.01 |  |  |  | 1.7 ± 0.1 | 
CCn1c(=O)/c(=C2\Sc3cc(C(C)C)ccc3N2C)s/c1=C\c1scc[n+]1Cc1ccccc1OC(F)(F)F [JG-325] |  |  | 0.48 ± 0.02 |  | 0.21 ± 0.01 |  | 0.09 ± 0.005
CCn1c(=O)/c(=C2\Sc3cc(C(C)C)ccc3N2C)s/c1=C\c1scc[n+]1Cc1ccccc1C(F)(F)F [JG-326] | 0.069 ± 0.005 | 0.06 ± 0.007 |  |  |  | 0.45 ± 0.04 | 
CCn1c(=O)/c(=C2\Sc3cc(C(C)C)ccc3N2C)s/c1=C\c1scc[n+]1Cc1ccsc1C(=O)OC [JG-327] | 0.15 ± 0.02 | 0.17 ± 0.02 |  |  |  | 0.7 ± 0.03 | 

Second part, led by results:

IC50 (MCF-7; MCF7, MTT, 72-hour incubation) [µM] | IC50 (MDA-MB-231; MDA-MB-231, 72-hour incubation) [µM] | SMILES | IC50 (MEF (C57BL/6); [1]) [µM] | IC50 (MCF-7; [2]) [µM] | IC50 (MDA-MB-231; [3]) [µM] | IC50 (MEF (C57BL/6); [4]) [µM] | IC50 (MCF-7; MCF7, 72 h) [µM]
0.12 ± 0.01 | 0.11 ± 0.01 | CCn1c(=O)/c(=C2\Sc3cc(OC)ccc3N2C)s/c1=C\c1scc[n+]1Cc1ccccc1C [JG-302] |  |  |  | 1.8 ± 0.05 | 
0.12 ± 0.01 | 0.13 ± 0.02 | CCn1c(=O)/c(=C2\Sc3cc(Cl)ccc3N2C)s/c1=C\c1scc[n+]1Cc1ccccc1Br [JG-307] |  |  |  | 1.1 ± 0.1 | 
0.16 ± 0.02 | 0.19 ± 0.02 | CCn1c(=O)/c(=C2\Sc3cc(F)ccc3N2C)s/c1=C\c1scc[n+]1Cc1ccccc1Br [JG-308] |  |  |  | 0.6 ± 0.06 | 
0.23 ± 0.04 | 0.11 ± 0.01 | CCn1c(=O)/c(=C2\Sc3cc(SC)ccc3N2C)s/c1=C\c1scc[n+]1Cc1ccccc1C [JG-310] |  |  |  | 2.2 ± 0.2 | 
> 20 | > 20 | CCn1c(=O)/c(=C2\Sc3cc(F)ccc3N2C)s/c1=C\c1scc[n+]1Cc1ccccc1C(=O)O [JG-315] |  |  |  | > 10 | 
> 20 | > 20 | CCn1c(=O)/c(=C2\Sc3cc(Cl)ccc3N2C)s/c1=C\c1scc[n+]1Cc1ccccc1C(=O)O [JG-316] |  |  |  | > 10 | 
0.12 ± 0.01 | 0.19 ± 0.01 | CCn1c(=O)/c(=C2\Sc3cc(C(C)C)ccc3N2C)s/c1=C\c1scc[n+]1Cc1ccccc1Cl [JG-323] |  |  |  | 0.53 ± 0.02 | 
0.17 ± 0.02 | 0.15 ± 0.02 | CCn1c(=O)/c(=C2\Sc3cc(C(C)C)ccc3N2C)s/c1=C\c1scc[n+]1Cc1ccccc1C [JG-324] |  |  |  | 1.9 ± 0.1 | 
